# Measured values from patent publication US5491137A, “14α17α-(Propano-and 17^2 propeno) -estratrienes” (Schering Aktiengesellschaft, priority 1991, dated 1996).
# Columns and labels:
# Estrogen Receptor = Estrogen Receptor Test; type: binding; details: KF not defined in the patent
# vaginal epithelium = test: Allen-Doisy test (vaginal smears in ovariectomized rats); type: in vivo; details: single administration day 1, smears days 3-5, threshold = amount at which 50% of animals reach stage 3 (estrus)
# Description: In the Allen-Doisy test, an evaluation of vaginal smears in ovariectomized rats is performed on days 3-5 (d3-d5) after the one-time administration on day 1 (d1 ) of the test substance. The following cycle stages are distinguished:
# 1=diestrus (leukocytes and nucleated epithelial cells),
# 2=proestrus (nucleated epithelial cells),
# 3=estrus (denucleated horny plaques),
# 4=metestrus (denucleated horny plaques, leukocytes, epithelial cells).
# After oral or subcutaneous administration, estrogenically active substances result in the proliferation of the vaginal epithelium and the hornification of superficial cell layers. Regarded as a threshold value, is the amount of an estrogen at which 50% of the animals reach stage 3. Further, estrogens cause an increase of the uterus weight.
Structure (SMILES),Estrogen Receptor Test [KF] (Estrogen Receptor),Allen-Doisy Test p.o. [ED50] (vaginal epithelium),Allen-Doisy Test s.c. [ED50] (vaginal epithelium)
"C[C@]12CC[C@@H]3c4ccc(O)cc4CC[C@H]3[C@@]13C=CC[C@]2(O)CC3 [14α,17α-(17^2 -Propeno)estra-1,3,5(10)-triene-3,17β-diol]","0,4",< 1 μg/Tier/Tag,"0,1-0,3 μg/Tier/Tag"
C#C[C@]1(O)CC[C@H]2[C@@H]3CCc4cc(O)ccc4[C@H]3CC[C@@]21C [Ethinylestradiol],0.5,3.0 μg/Tier/Tag,0.1-0.3 μg/Tier/Tag
